# Columns and labels:
# [1] = organism: Rattus norvegicus; assay: Antihyperglycemic activity in streptozotocin induced diabetic model of Sprague-Dawley albino rat assessed as reduction in blood glucose by AUC method; type: functional; design: scale not given: the % may be the effect or the level left
# [2] = organism: Rattus norvegicus; assay: Antihyperglycemic activity in sucrose loaded model of Sprague-Dawley albino rat assessed as reduction in blood glucose by AUC method; type: functional; design: scale not given: the % may be the effect or the level left
SMILES,Activity [1] [%],Activity [2] [%]
O=C(/C=C/c1ccc(OCC(O)CN2CCCCC2)cc1)c1ccccc1 (stereo unspecified),19.3,22.3
CC(C)CNCC(O)COc1ccc(/C=C/C(=O)c2ccccc2)cc1 (stereo unspecified),,6.5
O=C(/C=C/c1cccc(OCC(O)CN2CCN(c3ccccc3Cl)CC2)c1)c1ccccc1 (stereo unspecified),8.3,19
CC(C)(C)NCC(O)COc1ccc(/C=C/C(=O)c2ccccc2)cc1 (stereo unspecified),10.3,29
O=C(/C=C/c1cccc(OCC(O)CN2CCCCC2)c1)c1ccccc1 (stereo unspecified),9.4,11.3
CC(C)CNCC(O)COc1cccc(/C=C/C(=O)c2ccccc2)c1 (stereo unspecified),,14.5
O=C(/C=C/c1cccc(OCC(O)CN2CCN(c3ccccc3)CC2)c1)c1ccccc1 (stereo unspecified),10.4,22.9
O=C(/C=C/c1ccc(OCC(O)CN2CCN(c3ccccc3)CC2)cc1)c1ccccc1 (stereo unspecified),3,31.1
CN1CCN(CC(O)COc2cccc(/C=C/C(=O)c3ccccc3)c2)CC1 (stereo unspecified),20.1,20.4
CC(C)N(CC(O)COc1cccc(/C=C/C(=O)c2ccccc2)c1)C(C)C (stereo unspecified),22.6,26.7
CC(C)N(CC(O)COc1ccc(/C=C/C(=O)c2ccccc2)cc1)C(C)C (stereo unspecified),,7.9
CC(C)(C)NCC(O)COc1cccc(/C=C/C(=O)c2ccccc2)c1 (stereo unspecified),10.6,21.7
CCN(CC)CCCNCC(O)COc1cccc(/C=C/C(=O)c2ccccc2)c1 (stereo unspecified),8.3,20.8
COc1ccc(Cl)cc1C(=O)NCCc1ccc(S(=O)(=O)NC(=O)NC2CCCCC2)cc1 [GLYBURIDE],29,33.7
CN(C)C(=N)NC(=N)N [METFORMIN],,12.9
